Reference: PubChem BioAssay (NCI)
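48-hour exposure; five concentrations; linearly interpolated endpoints. TGI marks complete inhibition of growth.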

What was measured:
Assay in all cases: inhibition of tumour cell growth, NCI panel, 48 h
MCF7 breast = system: MCF7 breast
RXF 393 renal = system: RXF 393 renal
RPMI-8226 leukemia = system: RPMI-8226 leukemia
M14 melanoma = system: M14 melanoma
786-0 renal = system: 786-0 renal
NCI-H460 lung = system: NCI-H460 lung
SK-MEL-2 melanoma = system: SK-MEL-2 melanoma
SK-OV-3 ovarian = system: SK-OV-3 ovarian
LOX IMVI melanoma = system: LOX IMVI melanoma
NCI-H522 lung = system: NCI-H522 lung
SF-295 CNS = system: SF-295 CNS
PC-3 prostate = system: PC-3 prostate
SF-539 CNS = system: SF-539 CNS
HCT-15 colon = system: HCT-15 colon
NCI-H23 lung = system: NCI-H23 lung
SK-MEL-28 melanoma = system: SK-MEL-28 melanoma
OVCAR-4 ovarian = system: OVCAR-4 ovarian
T-47D breast = system: T-47D breast
MDA-N = system: MDA-N
CCRF-CEM leukemia = system: CCRF-CEM leukemia
COLO 205 colon = system: COLO 205 colon
DU-145 prostate = system: DU-145 prostate
SN12C renal = system: SN12C renal
BT-549 breast = system: BT-549 breast
SK-MEL-5 melanoma = system: SK-MEL-5 melanoma
UACC-62 melanoma = system: UACC-62 melanoma
NCI-H226 lung = system: NCI-H226 lung
K-562 leukemia = system: K-562 leukemia
SNB-19 CNS = system: SNB-19 CNS
HOP-62 NSCLC = system: HOP-62 NSCLC
NCI/ADR-RES ovarian = system: NCI/ADR-RES ovarian
KM12 colon = system: KM12 colon
SR leukemia = system: SR leukemia
SF-268 CNS = system: SF-268 CNS
ACHN renal = system: ACHN renal
MALME-3M melanoma = system: MALME-3M melanoma
MDA-MB-231 breast = system: MDA-MB-231 breast
EKVX NSCLC = system: EKVX NSCLC
U251 CNS = system: U251 CNS
SW-620 colon = system: SW-620 colon
OVCAR-5 ovarian = system: OVCAR-5 ovarian
HCT-116 colon = system: HCT-116 colon
IGROV1 ovarian = system: IGROV1 ovarian
A549 NSCLC = system: A549 NSCLC
OVCAR-8 ovarian = system: OVCAR-8 ovarian
UO-31 renal = system: UO-31 renal
SNB-75 CNS = system: SNB-75 CNS
CAKI-1 renal = system: CAKI-1 renal
HCC-2998 colon = system: HCC-2998 colon
UACC-257 melanoma = system: UACC-257 melanoma
A498 renal = system: A498 renal
MDA-MB-435 = system: MDA-MB-435
HT29 colon = system: HT29 colon
MOLT-4 leukemia = system: MOLT-4 leukemia
TK-10 renal = system: TK-10 renal
HS 578T breast = system: HS 578T breast
OVCAR-3 ovarian = system: OVCAR-3 ovarian
HL-60(TB) leukemia = system: HL-60(TB) leukemia
HOP-92 NSCLC = system: HOP-92 NSCLC

## N#Cc1c(-c2ccc(Cl)cc2)cc(-c2ccc(Nc3ccnc4cc(C(F)(F)F)ccc34)cc2)nc1N
MCF7 breast
  TGI: > 100 µM
RXF 393 renal
  TGI: 64.5 µM
RPMI-8226 leukemia
  TGI: > 100 µM
M14 melanoma
  TGI: 49.6 µM
786-0 renal
  TGI: 38.4 µM
NCI-H460 lung
  TGI: > 100 µM
SK-MEL-2 melanoma
  TGI: 62.4 µM
SK-OV-3 ovarian
  TGI: > 100 µM
LOX IMVI melanoma
  TGI: > 100 µM
NCI-H522 lung
  TGI: 75.9 µM
SF-295 CNS
  TGI: 38.8 µM
PC-3 prostate
  TGI: > 100 µM
SF-539 CNS
  TGI: 33.2 µM
HCT-15 colon
  TGI: 38.4 µM
NCI-H23 lung
  TGI: > 100 µM
SK-MEL-28 melanoma
  TGI: 48.2 µM
OVCAR-4 ovarian
  TGI: 42 µM
T-47D breast
  TGI: 43.2 µM
MDA-N
  TGI: > 100 µM
CCRF-CEM leukemia
  TGI: 56.5 µM
COLO 205 colon
  TGI: > 100 µM
DU-145 prostate
  TGI: > 100 µM
SN12C renal
  TGI: 59 µM
BT-549 breast
  TGI: > 100 µM
SK-MEL-5 melanoma
  TGI: > 100 µM
UACC-62 melanoma
  TGI: 37.8 µM
NCI-H226 lung
  TGI: 51.1 µM
K-562 leukemia
  TGI: 46.9 µM
SNB-19 CNS
  TGI: 30.6 µM
HOP-62 NSCLC
  TGI: 42.9 µM
NCI/ADR-RES ovarian
  TGI: > 100 µM
KM12 colon
  TGI: > 100 µM
SR leukemia
  TGI: 16.4 µM
SF-268 CNS
  TGI: > 100 µM
ACHN renal
  TGI: 36.8 µM
MALME-3M melanoma
  TGI: > 100 µM
MDA-MB-231 breast
  TGI: 71.2 µM
EKVX NSCLC
  TGI: > 100 µM
U251 CNS
  TGI: 38 µM
SW-620 colon
  TGI: > 100 µM
OVCAR-5 ovarian
  TGI: 88.2 µM
HCT-116 colon
  TGI: 22.4 µM
IGROV1 ovarian
  TGI: > 100 µM
A549 NSCLC
  TGI: > 100 µM
OVCAR-8 ovarian
  TGI: > 100 µM
UO-31 renal
  TGI: 34.3 µM
SNB-75 CNS
  TGI: 46.2 µM
CAKI-1 renal
  TGI: > 100 µM
HCC-2998 colon
  TGI: > 100 µM
UACC-257 melanoma
  TGI: > 100 µM
A498 renal
  TGI: 33.8 µM
MDA-MB-435
  TGI: 42.7 µM
HT29 colon
  TGI: 31.5 µM
MOLT-4 leukemia
  TGI: 37.5 µM
TK-10 renal
  TGI: 81.4 µM

## C=C1C[C@@H](O)[C@@H](Br)C(C)(C)[C@@]12C=CC(O)(CBr)CC2 (some centres not stated)
MCF7 breast
  TGI: > 100 µM
RXF 393 renal
  TGI: > 100 µM
RPMI-8226 leukemia
  TGI: 70.7 µM
M14 melanoma
  TGI: > 100 µM
786-0 renal
  TGI: > 100 µM
NCI-H460 lung
  TGI: > 100 µM
SK-MEL-2 melanoma
  TGI: > 100 µM
LOX IMVI melanoma
  TGI: > 100 µM
NCI-H522 lung
  TGI: > 100 µM
SF-295 CNS
  TGI: > 100 µM
PC-3 prostate
  TGI: 9.72 µM
HCT-15 colon
  TGI: > 100 µM
NCI-H23 lung
  TGI: > 100 µM
SK-MEL-28 melanoma
  TGI: > 100 µM
OVCAR-4 ovarian
  TGI: > 100 µM
HS 578T breast
  TGI: > 100 µM
T-47D breast
  TGI: > 100 µM
MDA-N
  TGI: > 100 µM
OVCAR-3 ovarian
  TGI: > 100 µM
CCRF-CEM leukemia
  TGI: 64.2 µM
DU-145 prostate
  TGI: > 100 µM
SN12C renal
  TGI: > 100 µM
BT-549 breast
  TGI: 83.7 µM
SK-MEL-5 melanoma
  TGI: > 100 µM
UACC-62 melanoma
  TGI: > 100 µM
NCI-H226 lung
  TGI: > 100 µM
K-562 leukemia
  TGI: > 100 µM
SNB-19 CNS
  TGI: > 100 µM
HL-60(TB) leukemia
  TGI: > 100 µM
HOP-62 NSCLC
  TGI: > 100 µM
KM12 colon
  TGI: 15.1 µM
SR leukemia
  TGI: 77.6 µM
SF-268 CNS
  TGI: > 100 µM
ACHN renal
  TGI: > 100 µM
MALME-3M melanoma
  TGI: > 100 µM
MDA-MB-231 breast
  TGI: 93.5 µM
EKVX NSCLC
  TGI: 79.2 µM
U251 CNS
  TGI: > 100 µM
SW-620 colon
  TGI: > 100 µM
OVCAR-5 ovarian
  TGI: > 100 µM
HCT-116 colon
  TGI: > 100 µM
HOP-92 NSCLC
  TGI: 61 µM
IGROV1 ovarian
  TGI: > 100 µM
A549 NSCLC
  TGI: > 100 µM
OVCAR-8 ovarian
  TGI: > 100 µM
UO-31 renal
  TGI: > 100 µM
CAKI-1 renal
  TGI: > 100 µM
UACC-257 melanoma
  TGI: > 100 µM
MDA-MB-435
  TGI: > 100 µM
HT29 colon
  TGI: > 100 µM
MOLT-4 leukemia
  TGI: 76.2 µM
TK-10 renal
  TGI: > 100 µM
